Data as given in patent publication US20230218710A1, “METHOD OF TREATING CORONAVIRUS INFECTIONS” (priority 2020, published 2023).
Square brackets hold non-standard residues; d marks the D form. Peptide text beside a SMILES is read from it.

Legend:
[1] = in vitro; details: human, pooled human plasma
Procedure: The metabolic stability of the peptides can be assessed in vitro by incubation in plasma and determination of the amount of peptide remaining over time. Peptides (50 μM) were incubated in pooled plasma from mice, monkeys, and humans at 37° C. Samples were removed at intervals up to 3 hours and immediately analyzed for the concentration of intact peptide by LC/MS/MS. The percent of peptide remaining in plasma at each time point was calculated relative to the initial peak area.

[2] = test system: LPS-induced acute lung injury mouse model; experiment: LPS-induced acute lung injury model in mouse (Example 6); type: in vivo, mice; details: histopathology, 24 h after LPS, 5 mg/kg i.p.
Procedure: The effect of the peptides of the current invention on acute lung injury can be assessed in an LPS-induced acute lung injury mouse model by monitoring outcomes such as lung weight, fluid accumulation, cytokine secretion in blood or bronchoalveolar lavage fluid (BALF), neutrophil infiltration into lung tissues, and assessment of acute lung injury score by histopathology. Acute lung injury was induced in male C57BL/6 mice (6 to 8 weeks old) by intratracheal administration of 40 μL lipopolysaccharide (LPS) (Sigma Aldrich, St. Louis, Mo.) in PBS at 5 mg/kg. Control animals received intratracheal PBS alone. […] Treatments were administered 1 h prior to LPS for animals designated for sacrifice at 4 h after LPS, or at both 1 h prior to and 6 h after LPS for animals designated for sacrifice at 24 h after LPS. At 4 or 24 hours post LPS administration, tissues were harvested. Lungs were weighed, flushed with Hanks Buffer to provide bronchoalveolar lavage fluid (BALF). Lungs were fixed in 10% neutral buffered formalin (NBF) for histopathology. Tissue slides were stained with hematoxylin and eosin (H&E) and evaluated and scored with light microscopy of 5 representative microscopic fields (100× magnification) scoring on a 0-5 scale using standard methods (Matute-Bello G et al 2011. An Official American Thoracic Society Workshop Report: Features and Measurements of Experimental Acute Lung Injury in Animals. Am J Respir Cell Mol Biol 44:725-38). The average score for five fields was calculated for each animal. Levels of pro-inflammatory cytokines in BALF were determined using a meso scale discovery (MSD) system. Data for test peptides were compared to the vehicle control group. Lung weights were normalized to body weight.

| Molecule | remaining at 0.5 h, 50 μM [1] [%] | other results |
| --- | --- | --- |
| CC[C@H](C)[C@H](NC(=O)[C@H](CCCNC(=N)N)NC(=O)[C@@H](N)CCCNC(=N)N)C(=O)N[C@H](C(=O)N[C@H](C)C(=O)N[C@H](C(=O)N[C@H](C(=O)N[C@@H](Cc1ccccc1)C(=O)N[C@@H](CCC(N)=O)C(=O)N[C@@H](CS)C(=O)N[C@@H](CC(C)C)C(=O)N[C@@H](CS)C(=O)N[C@H](C)C(=O)N[C@@H](CC(C)C)C(=O)O)C(C)C)[C@@H](C)CC)[C@@H](C)CC [compound 9] (H-RRII[dA]IVFQCLC[dA]L-OH) | 92.5 |  |
| CSCC[C@H](NC(=O)CNC(=O)[C@H](CCSC)NC(=O)[C@H](CCSC)NC(=O)[C@@H](N)CCCNC(=N)N)C(=O)N[C@H](C(=O)N[C@@H](Cc1ccccc1)C(=O)O)C(C)C [compound 50] (H-RMMGMVF-OH) | 87.7 |  |
| CSCC[C@H](NC(=O)CNC(=O)[C@H](CCSC)NC(=O)[C@H](CCSC)NC(=O)[C@H](CCCNC(=N)N)NC(=O)[C@@H](N)CCCNC(=N)N)C(=O)O [compound 55] (H-RRMMGM-OH) | 100 |  |
| CSCC[C@H](NC(=O)CNC(=O)[C@H](CCSC)NC(=O)[C@H](CCSC)NC(=O)[C@H](CCCNC(=N)N)NC(=O)[C@@H](N)CCCNC(=N)N)C(=O)N[C@H](C(=O)N[C@@H](Cc1ccccc1)C(=O)N[C@@H](CCC(N)=O)C(=O)N[C@@H](CO)C(=O)N[C@@H](CC(C)C)C(=O)N[C@@H](CS)C(=O)NCC(=O)N[C@H](C)C(N)=O)C(C)C [compound 62] | 30.3 |  |
| CSCC[C@H](NC(=O)CNC(=O)[C@H](CCSC)NC(=O)[C@H](CCSC)NC(=O)[C@H](CCCNC(=N)N)NC(=O)[C@H](CCCNC(=N)N)NC(=O)[C@@H](N)CCSC)C(=O)N[C@H](C(=O)N[C@@H](Cc1ccccc1)C(=O)N[C@@H](CCC(N)=O)C(=O)N[C@@H](CS)C(=O)N[C@@H](CC(C)C)C(=O)N[C@@H](CS)C(=O)NCC(=O)N[C@@H](CC(C)C)C(=O)O)C(C)C [compound 7] | 52.4 |  |
| CSCC[C@H](NC(=O)CNC(=O)[C@H](CCSC)NC(=O)[C@H](CCSC)NC(=O)[C@@H](N)CCCNC(=N)N)C(=O)N[C@H](C(=O)N[C@@H](Cc1ccccc1)C(=O)N[C@@H](CCC(N)=O)C(=O)N[C@@H](CO)C(=O)N[C@@H](CC(C)C)C(=O)O)C(C)C [compound 53] (H-RMMGMVFQSL-OH) | 85.8 |  |
| CSCC[C@H](NC(=O)CNC(=O)[C@H](CCSC)NC(=O)[C@H](CCSC)NC(=O)[C@H](CCCNC(=N)N)NC(=O)[C@@H](N)CCCNC(=N)N)C(=O)N[C@H](C(=O)N[C@@H](Cc1ccccc1)C(=O)O)C(C)C [compound 57] (H-RRMMGMVF-OH) | 91.9 |  |
| (PEG12)KRRMMGMVFQSLCG(dA) (KRRMMGMVFQSLCGA; N-terminal PEG12; C-terminal D-alanine; (1)..(1) PEG12; (15)..(15) D-Ala) [SEQ ID NO: 36] |  | Mean (SEM) Alveolar Neutrophil Infiltration Score ([2]; 0-5 scale): 1.98 (0.18); Mean (SEM) Interstitial Neutrophil Infiltration Score ([2]; 0-5 scale): 1.60 (0.14); Mean (SEM) Composite Lung Injury Score [2]: 3.65 (0.28) |
| CSCC[C@H](NC(=O)CNC(=O)[C@H](CCSC)NC(=O)[C@H](CCSC)NC(=O)[C@H](CCCNC(=N)N)NC(=O)[C@@H](N)CCCNC(=N)N)C(=O)N[C@H](C(=O)N[C@@H](Cc1ccccc1)C(=O)N[C@@H](CCC(N)=O)C(=O)N[C@@H](CO)C(=O)O)C(C)C [compound 59] (H-RRMMGMVFQS-OH) | 62.9 |  |
| CSCC[C@H](NC(=O)CNC(=O)[C@H](CCSC)NC(=O)[C@@H](N)CCSC)C(=O)N[C@H](C(=O)N[C@@H](Cc1ccccc1)C(=O)N[C@@H](CCC(N)=O)C(=O)O)C(C)C [compound 46] (H-MMGMVFQ-OH) | 100 |  |
| CSCC[C@H](NC(=O)CNC(=O)[C@H](CCSC)NC(=O)[C@@H](N)CCSC)C(=O)N[C@H](C(=O)N[C@@H](Cc1ccccc1)C(=O)O)C(C)C [compound 45] (H-MMGMVF-OH) | 90.8 |  |
| CSCC[C@H](NC(=O)CNC(=O)[C@H](CCSC)NC(=O)[C@@H](N)CCSC)C(=O)N[C@H](C(=O)N[C@@H](Cc1ccccc1)C(=O)N[C@@H](CCC(N)=O)C(=O)N[C@@H](CO)C(=O)N[C@@H](CC(C)C)C(=O)O)C(C)C [compound 48] (H-MMGMVFQSL-OH) | 92 |  |
| CSCC[C@H](NC(=O)CNC(=O)[C@H](CCSC)NC(=O)[C@H](CCSC)NC(=O)[C@@H](N)CCCNC(=N)N)C(=O)N[C@H](C(=O)N[C@@H](Cc1ccccc1)C(=O)N[C@@H](CCC(N)=O)C(=O)O)C(C)C [compound 51] (H-RMMGMVFQ-OH) | 100 |  |
| CSCC[C@H](NC(=O)CNC(=O)[C@H](CCSC)NC(=O)[C@H](CCSC)NC(=O)[C@H](CCCNC(=N)N)NC(=O)[C@@H](N)CCCNC(=N)N)C(=O)N[C@H](C(=O)N[C@@H](Cc1ccccc1)C(=O)N[C@@H](CCC(N)=O)C(=O)O)C(C)C [compound 58] (H-RRMMGMVFQ-OH) | 69.5 |  |
| CSCC[C@H](NC(=O)CNC(=O)[C@H](CCSC)NC(=O)[C@H](CCSC)NC(=O)[C@@H](N)CCCNC(=N)N)C(=O)N[C@H](C(=O)N[C@@H](Cc1ccccc1)C(=O)N[C@@H](CCC(N)=O)C(=O)N[C@@H](CO)C(=O)O)C(C)C [compound 52] (H-RMMGMVFQS-OH) | 97.5 |  |
| CSCC[C@H](NC(=O)CNC(=O)[C@H](CCSC)NC(=O)[C@H](CCSC)NC(=O)[C@H](CCCNC(=N)N)NC(=O)[C@@H](N)CCCNC(=N)N)C(=O)N[C@H](C(=O)O)C(C)C [compound 56] (H-RRMMGMV-OH) | 92.1 |  |
| CSCC[C@H](NC(=O)CNC(=O)[C@H](CCSC)NC(=O)[C@@H](N)CCSC)C(=O)N[C@H](C(=O)N[C@@H](Cc1ccccc1)C(=O)N[C@@H](CCC(N)=O)C(=O)N[C@@H](CO)C(=O)O)C(C)C [compound 47] (H-MMGMVFQS-OH) | 86.1 |  |
| CSCC[C@H](NC(=O)CNC(=O)[C@H](CCSC)NC(=O)[C@H](CCSC)NC(=O)[C@H](CCCNC(=N)N)NC(=O)[C@@H](N)CCCNC(=N)N)C(=O)N[C@H](C(=O)N[C@@H](Cc1ccccc1)C(=O)N[C@@H](CCC(N)=O)C(=O)N[C@@H](CO)C(=O)N[C@@H](CC(C)C)C(=O)O)C(C)C [compound 60] (H-RRMMGMVFQSL-OH) | 95 |  |
